# Patent US20060099712A1, “Correlation of anti-cancer activity of dyes with redox potentials” (Eastman Kodak Company, priority 2004, published 2006)
# “And” between values parts separate entries of the source, which are not always exact repeats. Identical values can stand only once. Like-named read-outs stand apart in the source and are kept apart here.
# Columns and labels:
# [1] = tested on: CV-1 Normal Monkey Kidney Epithelial; assay: Clonogenic dye screening assay, CV-1 cells (IC50); format: cell-based, African green monkey; conditions: for IC50 (concentration at which 50% of the cells of the culture are killed): cell line 1, CV-1 normal control; for IC50: Primates
# In short: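 Cells seeded 16-30 h ahead (2000 CX-1 or 1000 CV-1 per well), exposed to serially diluted dyes for 3 h at 37 °C, rinsed three times, then grown into colonies. Eight-point curves spanned 0.32-0.0015 μg/mL (CX-1) and 3.2-0.025 μg/mL (CV-1). IC50 is the concentration killing 50% of cells.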
# [2] = tested on: MCF-7 Human Breast Carcinoma; assay: Initial in vitro screening, breast carcinoma cells; format: cell-based; conditions: for Selectivity: IC50 CV-1 / IC50 cell line 3 (breast carcinoma); for IC50 (concentration at which 50% of the cells of the culture are killed) / IC50: cell line 3, MCF-7 human breast carcinoma, unit from method; for IC50: MCF7, read-out: IC50 (concentration at which 50% of the cells of the culture are killed)
# Text: (§1) Other publications have shown that some cyanine dyes show anti-cancer activity. See I. Minami, Y. Kozai, H. Nomura and T. Tashiro, Chem. Phar. Bull. 30:3106 (1982); W. M. Anderson, D. L. Delinick, L. Benninger, J. M. Wood, S. T. Smiley and L. B. Chen, Biochemical Pharmacology, 45:691 (1993). […] (See L. G. S. Brooker, L. A. Sweet, Science, 105, (1947) and I. Minami, Y. Kozai, H. Nomura, T. Tashiro, Chem. Pharm. Bull., 30,3106 (1982) on chemotherapeutic investigations of cyanine dyes.) Table I lists initial in vitro screening results in various cell lines and a comparison with Adriamycin, which is a widely used chemotherapeutic agent.
# (§2) Description of Cell Line • 1. CV-1 Normal Monkey Kidney Epithelial (control) • 2. CX-1 Human Colon Carcinoma • 3. Human Breast Carcinoma • 4. Human Pancreatic Carcinoma • 5. Human Bladder Carcinoma • 6. Human Lung Carcinoma • 7. Human Squamous Cell Carcinoma • 8. Human Adrenal Cortex Carcinoma
# [3] = tested on: CRL 1420 Human Pancreatic Carcinoma; assay: Initial in vitro screening, pancreatic carcinoma cells; format: cell-based; conditions: for Selectivity: IC50 CV-1 / IC50 cell line 4 (pancreatic carcinoma); for IC50: read-out: IC50 (concentration at which 50% of the cells of the culture are killed)
# Text: as §1, §2
# [4] = tested on: EJ Human Bladder Carcinoma; assay: Initial in vitro screening, bladder carcinoma cells; format: cell-based; conditions: for Selectivity: IC50 CV-1 / IC50 cell line 5 (bladder carcinoma); for IC50 (concentration at which 50% of the cells of the culture are killed) / IC50: cell line 5, EJ human bladder carcinoma, unit from method; for IC50: read-out: IC50 (concentration at which 50% of the cells of the culture are killed)
# Text: as §1, §2
# [5] = tested on: CCL 105 Human Adrenal Cortex Carcinoma; assay: Initial in vitro screening, adrenal cortex carcinoma cells; format: cell-based; conditions: for Selectivity: IC50 CV-1 / IC50 cell line 8 (adrenal cortex carcinoma); for IC50: read-out: IC50 (concentration at which 50% of the cells of the culture are killed)
# Text: as §1, §2
# [6] = cell line 4, CRL 1420 human pancreatic carcinoma, unit from method
# [7] = cell line 8, CCL 105 human adrenal cortex carcinoma, unit from method
# [8] = CV-1, cell line 1, CV-1 normal control, unit from method, read-out: IC50 (concentration at which 50% of the cells of the culture are killed)
# [9] = CV-1, Table XIX, CV-1 cells, read-out: CV
SMILES,Selectivity [2],Selectivity [3],Selectivity [4],Selectivity [5],"IC50 [1, 8]",IC50 [2],"IC50 [3, 6]",IC50 [4],"IC50 [5, 7]",also measured
CCN1C(=CC=Cc2sc3cc4ccccc4cc3[n+]2CC)Sc2cc3ccccc3cc21 [AC-2],>60,>60,>60,>60,–,–,–,–,–,"IC50 (concentration at which 50% of the cells of the culture are killed) ([1]; unit from method): 0.30 µg/mL; IC50 (concentration at which 50% of the cells of the culture are killed) [2]: <.005 µg/mL; IC50 (concentration at which 50% of the cells of the culture are killed) [3, 6]: <.005 µg/mL; IC50 (concentration at which 50% of the cells of the culture are killed) [4]: <.005 µg/mL; IC50 (concentration at which 50% of the cells of the culture are killed) [5, 7]: <.005 µg/mL"
"COc1cccc2c1C(=O)c1c(O)c3c(c(O)c1C2=O)C[C@@](O)(C(=O)CO)C[C@@H]3O[C@H]1C[C@H](N)[C@H](O)[C@H](C)O1 [Adriamycin, reference compound]",16,13,8,16,0.8 µg/mL,0.05 µg/mL,0.06 µg/mL,0.1 µg/mL,0.05 µg/mL,–
CCN1/C(=C/C=C/c2sc3ccccc3[n+]2CC)Sc2ccccc21.[I-] [Dye D-101],13.3,100,>100,>100,–,–,–,–,–,IC50 (concentration at which 50% of the cells of the culture are killed) ([1]; unit from method): 0.5 µg/mL and 0.50 µg/mL; IC50 (concentration at which 50% of the cells of the culture are killed) [2]: 0.03 µg/mL; IC50 (concentration at which 50% of the cells of the culture are killed) [4]: <0.005 µg/mL
CCN1/C(=C\C=C\C2=[N+](CC)c3ccccc3C2(C)C)C(C)(C)c2ccccc21 [Dye D-103],–,–,–,–,–,–,–,–,–,"IC50 ([1]; CV-1, read-out: CV): 5 µg/mL; IC50 ([1]; CV-1, read-out: CV (IC50 in the CV-1 cell line)): 5 µg/mL"
CCN1/C(=C/C=C/c2sc3cc4ccccc4cc3[n+]2CC)Sc2cc3ccccc3cc21 [Dye D-109],–,–,–,–,–,–,–,–,–,"IC50 [1, 9]: 0.3 µg/mL"
CCN1C(=CC=Cc2sc3cc4ccccc4nc3[n+]2CC)Sc2cc3ccccc3nc21 [Dye D-150],100,100,300,300,3 µg/mL,0.03 µg/mL,0.03 µg/mL,0.01 µg/mL,0.01 µg/mL,"IC50 ([1]; CV-1, 3 hrs treatment, colonies after 7-10 days, unit from method, read-out: CV (IC50 in the CV-1 cell line)): 3 µg/mL; IC50 [1, 9]: 3 µg/mL"
CCN1/C(=C/C=C/c2sc3cc4ccccc4cc3[n+]2CC)Sc2cc3ccccc3cc21 [Dye D-160],–,–,–,–,0.3 µg/mL,< 0.005 µg/mL,< 0.005 µg/mL,< 0.005 µg/mL,< 0.005 µg/mL,–
